Data reported in US8207154B2, “Catatonic bacteriochlorophyll derivatives” (Yeda Research and Development Co., Ltd., priority 2005, dated 2012).
Read-outs that look alike come from different tables or passages of the source.

Key:
[1] = Octanol/water partition ratio; type: physicochemical
Source text: Optical absorption in water, λ (relative absorption): 753 (1.00), 519 (0.30), 354 (1.25) nm. Octanol/water partition ratio is 40/60. ESI-MS (+): 413.62 ([M-2×citrate]/2). Octanol/water partition ratio is 50/50. ESI-MS (+): 455.89 ([M-2×citrate]/2). Octanol/water partition ratio is 75/25.

H5V cells = experiment: Phototoxicity assay (PDT efficacy at two incubation times), neutral red survival; type: cell-based, mouse; settings: then 10 min illumination, 12 J/cm^2
Experimental: H5V cells (40×10^3/well) were cultured in 96-well plates for 24 h to ˜80% confluence. To determine phototoxicity, the culture medium was replaced with 100 μl/well medium, in the absence or presence of 10^−8 to 10^−6 M sensitizer, and incubated in the dark for 15 min or 3 h in the culture incubator. The plates (PDT group) were then placed in the light field at room temperature and illuminated from the bottom for 10 min (800>λ>650 nm, 12 J/cm^2). After illumination, the medium was changed to fresh culture medium. The cultures were then placed in the culture incubator and cell survival was determined 24 h later, using the neutral red survival assay described below.
Following 24 h post PDT the culture medium in the wells was replaced with 100 μl fresh medium containing 40 μg/ml neutral red. The plate was incubated for 1.5 h in a dark culture incubator. The medium was aspirated and the cells washed with 100 μl of solution containing 1% CaCl2 and 0.5% formaldehyde, which removes the unincorporated dye and fixes the cells to the substratum. The dye was then extracted from the cells into the supernatant upon addition of 100 μl 1% glacial acetic acid in 50% ethanol. After 1-2 min at room temperature, the optical density of the wells was determined in a microplate spectrophotometer using a 570 nm filter. After subtraction of assay blanks, net optical density was computed as the average value of triplicate determinations. Cell survival was calculated as the percent of the dye accumulated in the untreated control. To determine cell survival data was plotted against sensitizer concentration. These curves were then used to calculated LD50 values.
Following synthesis, the compounds described in the Examples 23 to 75 above were purified, divided into equal aliquots and lyophilized for storage (desiccated at −20° C.). The exact material content was determined by HPLC-diode array detection, and the PDT efficacy was evaluated at two incubation times as described in the experimental section.

E. coli = experiment: Phototoxicity on Gram-negative bacteria, colony counting; type: cell-based, E. coli XL-1; settings: 1 h incubation, illuminated
Experimental: (§1) (ii) Bacterial cultures. Bacteria of strains St. albus and E. coli XL-1 were cultured in liquid LB medium (E. coli in LB containing 12.5 μg tetracyclin/ml) to a final density of OD600 nm=0.5-0.9 (1 OD=8×10^8 bacteria/ml). The bacteria were spun down (4000×g, 5 min.) and resuspended in PBS.
(§2) (b) Bacterial. To determine the photodynamic efficacy, bacteria were diluted to aliquots of 300 μl containing about 10^7 bacteria, and incubated with increasing concentrations of sensitizer in plastic test tubes in the dark for 1 h at room temperature, and then illuminated at 70 mW/cm^2 for 15 min. Samples of the treated bacteria cultures were subsequently plated at different dilutions (50-200 bacteria/plate) on LB agar and cultured for 24 h at 37° C. for determination of bacterial survival by colony counting. Triplicate determinations were conducted and representative experiments are shown.
(§3) The phototoxicity of positively-charged compound 5 was tested on Gram-positive St. albus and Gram-negative E. coli bacteria in comparison to the negatively-charged Pd 3^1-oxo-15-methoxycarbonylmethyl-Rhodobacteriochlorin 13^1-(2-sulfoethyl)amide dipotassium salt (described in PCT/IL03/00973). Bacteria were incubated with increasing concentrations of the sensitizers for 1 h and illuminated or kept in the dark. […] Gram-positive bacteria St. albus, was 100 times more sensitive to compound 5 than Gram-negative E. coli. No phototoxicity was observed when bacteria were incubated and treated with the same sensitizers' concentration range without illumination (dark controls).

St. albus = experiment: Phototoxicity on Gram-positive bacteria, colony counting; type: cell-based; settings: 1 h incubation, illuminated 15 min at 70 mW/cm^2; read-out: Kd (phototoxicity)
Experimental: as §1, §2, §3

[2] = 15 min incubation in the dark, read-out: IC50 15 min
[3] = 3 h incubation in the dark, read-out: IC50 3 hours

Compound	Octanol/water partition ratio [1]	IC50 (H5V cells; [2])	IC50 (H5V cells; [3])	effectiveness against Gram-negative E. coli (E. coli)	phototoxic killing concentration (St. albus)
3^1-Oxo-15-methoxycarbonylmethyl-Rhodobacteriochlorin 13^1,17^3-di(3-N^3-trimethylammoniumpropyl)amide dicitrate salt [Compound 7]	50/50	–	–	–	–
CC(=O)O.CC[C@H]1C2=NC(=Cc3c(C(C)=O)c(C)c4[n]3[Pd][n]3c(c(C)c(C(=O)NCCN(C)C)c3=C(CC(=O)OC)C3=NC(=C4)[C@@H](C)[C@@H]3CCC(=O)NCC(C)O)=C2)[C@@H]1C (stereo partly shown) [Compound 67, Palladium 3^1-oxo-15-methoxycarbonylmethyl-Rhodobacteriochlorin-13^1-(2-N^2-dimethylaminoethyl)amide-17^3-(2-hydroxypropyl)amide]	–	500 nM	180 nM	–	–
CC(=O)O.CC[C@H]1C2=NC(=Cc3c(C(C)=O)c(C)c4[n]3[Pd][n]3c(c(C)c(C(=O)NCCN(C)C)c3=C(CC(=O)OC)C3=NC(=C4)[C@@H](C)[C@@H]3CCC(=O)NC[C@H](C)O)=C2)[C@@H]1C [Compound 69, Palladium 3^1-oxo-15-methoxycarbonylmethyl-Rhodobacteriochlorin-13^1-(2-N^2-dimethylaminoethyl)amide-17^3-((S)-2-hydroxypropyl)amide]	–	500 nM	160 nM	–	–
CC(=O)O.CC(=O)O.CC[C@H]1C2=NC(=Cc3c(C(C)=O)c(C)c4[n]3[Pd][n]3c(c(C)c(C(=O)NCC(O)CO)c3=C(CC(=O)OC)C3=NC(=C4)[C@@H](C)[C@@H]3CCC(=O)NCCCCNc3ccccn3)=C2)[C@@H]1C (stereo partly shown) [Compound 74, Palladium 3^1-oxo-15-methoxycarbonylmethyl-Rhodobacteriochlorin-13^1-(2,3-dihydroxypropyl)amide-17^3-(4-N-(2′-pyridyl)aminobutyl)amide]	–	740 nM	290 nM	–	–
CCC1C2=Cc3c(C)c(C(=O)NCCS(=O)(=O)[O-])c4[n]3[Pd][n]3c(c(C)c(C(C)=O)c3=CC(=N2)C1C)=CC1=NC(=C4CC(=O)OC)C(CCC(=O)[O-])C1C.[K+].[K+] (stereo not shown) [Pd 3^1-oxo-15-methoxycarbonylmethyl-Rhodobacteriochlorin 13^1-(2-sulfoethyl)amide dipotassium salt, reference compound]	–	–	–	not against Gram-negative E. coli	300 nM
Palladium 3^1-oxo-15-methoxycarbonylmethyl-Rhodobacteriochlorin-13^1-(2,3-dihydroxypropyl)amide-17^3-(3-N-(2′-pyridyl)aminopropyl)amide [Compound 73]	–	380 nM	300 nM	–	–
Palladium 3^1-oxo-15-methoxycarbonylmethyl-Rhodobacteriochlorin-13^1-(2-N-dimethylaminoethyl)amide-17^3-(2-hydroxy ethyl)amide [Compound 65]	–	430 nM	220 nM	–	–
Palladium 3^1-oxo-15-methoxycarbonylmethyl-Rhodobacteriochlorin-13^1-(2-N^2-diethylaminoethyl)amide-17^3-(2,3-dihydroxy propyl)amide [Compound 62]	–	630 nM	190 nM	–	–
Palladium 3^1-oxo-15-methoxycarbonylmethyl-Rhodobacteriochlorin-13^1-(2-N^2-dimethylaminoethyl)amide-17^3-(2-(2-hydroxyethylamino)ethyl)amide [Compound 70]	–	550 nM	160 nM	–	–
Palladium 3^1-oxo-15-methoxycarbonylmethyl-Rhodobacteriochlorin-13^1-(2-N^2-dimethylaminoethyl)amide-17^3-((R)-2-hydroxypropyl)amide [Compound 68]	–	500 nM	160 nM	–	–
Palladium 3^1-oxo-15-methoxycarbonylmethyl-Rhodobacteriochlorin-13^1-(2-N^2-dimethylaminoethyl)amide-17^3-(glycosyl) amide [Compound 75]	–	500 nM	160 nM	–	–
Palladium 3^1-oxo-15-methoxycarbonylmethyl-Rhodobacteriochlorin-13^1-(2-N^3-trimethylammoniumethyl)amide acetate (salt) [Compound 24]	–	2400 nM	1200 nM	–	–
Palladium 3^1-oxo-15-methoxycarbonylmethyl-Rhodobacteriochlorin-13^1-(3-aminopropyl)amide-17^3-(2,3-dihydroxypropyl)amide [Compound 60]	–	620 nM	240 nM	–	–
